Measured values from PMC7126871 (Bioorganic & Medicinal Chemistry Letters, 2012).

Experiments:
[1] = test system: Coxsackie A strains A7 or A21; test: organism not typed; type: cell-based; settings: MRC5, read-out: EC50 Coxsackie A
panel of RNA viruses = type: cell-based
cancer cell lines = settings: cited from earlier work
[2] = test system: HCV (1b) subgenomic replicon; type: cell-based
replicon cells = settings: human
[3] = pH <7; cited from earlier work

Structure (SMILES) | EC50 [1] | antiviral activity against panel of RNA viruses (in words) (panel of RNA viruses) | selectivity index (CC50/EC50) [2] | also measured
N#C[C@@]1(c2ccc3c(N)ncnn23)O[C@H](CO)[C@@H](O)[C@H]1O [Compound 3a] | > 30 µM | broader spectrum activity |  | 
Nc1ncnc2c1ccn2[C@@H]1O[C@H](CO)[C@@H](O)[C@H]1O [Compound 1, 7-Deazaadenosine] |  |  |  | cytotoxicity (in words) (cancer cell lines): cytotoxic
C#C[C@@]1(c2ccc3c(N)ncnn23)O[C@H](COP(=O)(OCCSC(=O)C(C)(C)C)OCCSC(=O)C(C)(C)C)[C@@H](O)[C@H]1O [Compound 9d] |  |  | less than 10 fold | 
C=C[C@@]1(c2ccc3c(N)ncnn23)O[C@H](COP(=O)(OCCSC(=O)C(C)(C)C)OCCSC(=O)C(C)(C)C)[C@@H](O)[C@H]1O [Compound 9c] |  |  | less than 10 fold | 
C#C[C@@]1(c2ccc3c(N)ncnn23)O[C@H](CO)[C@@H](O)[C@H]1O [Compound 3d] | > 30 µM | no activity |  | 
CC(C)(C)C(=O)SCCOP(=O)(OCCSC(=O)C(C)(C)C)OC[C@H]1O[C@@](C#N)(c2ccc3c(N)ncnn23)[C@H](O)[C@@H]1O [Compound 9a] |  |  |  | replicon activity compared to the parent nucleosides (in words) [2]: markedly enhanced replicon activity
C=C[C@@]1(c2ccc3c(N)ncnn23)O[C@H](CO)[C@@H](O)[C@H]1O [Compound 3c] | > 30 µM | reduced potency and a narrower spectrum of antiviral activity |  | 
C[C@@]1(c2ccc3c(N)ncnn23)O[C@H](CO)[C@@H](O)[C@H]1O [Compound 3b] | > 30 µM | reduced potency and a narrower spectrum of antiviral activity |  | CC50 (replicon cells): > 89 µM
C[C@@]1(n2cnc3c(N)ncnc32)O[C@H](CO)[C@@H](O)[C@H]1O [1′-C-Me adenosine] |  |  |  | stability in aqueous solutions [3]: rapidly degraded
CC(C)(C)C(=O)SCCOP(=O)(OCCSC(=O)C(C)(C)C)OC[C@H]1O[C@@](C)(c2ccc3c(N)ncnn23)[C@H](O)[C@@H]1O [Compound 9b] |  |  | less than 10 fold | replicon activity compared to the parent nucleosides (in words) [2]: markedly enhanced replicon activity
